Values of other authors, collected in paper PMC7036871, “Identification and Characterization of pantocin wh-1, a Novel Cyclic Polypeptide Produced by Pantoea dispersa W18” (Molecules, 2020).
In brackets after ≈: the same amount, converted by molar mass. Like-named read-outs stand apart in the source and are kept apart here.

System: M. tuberculosis
Parameters: method as in 8 sources, ref [15],[16] = [15]; PMID 24684906; doi:10.1016/j.chembiol.2014.01.014; 15. Gavrish E. Sit C.S. Cao S. Kandror O. Spoering A. Peoples A. Ling L. Fetterman A. Hughes D. Bissell A. Lassomycin, a ribosomally synthesized cyclic peptide, kills mycobacterium tuberculosis by tar || [16]; PMID 24766844; doi:10.1016/j.chembiol.2014.04.002; 16. Parish T. Targeting mycobacterial proteolytic complexes with natural products Chem. Biol. 2014 21 437 438 10.1016/j.chembiol.2014.04.002 24766844 ||| ref [17] = [17]; PMID 25421483; doi:10.1128/AAC.04054-14; 17. Gao W. Kim J.Y. Anderson J.R. Akopian T. Hong S. Jin Y.Y. Kandror O. Kim J.W. Lee I.A. Lee S.Y. The cyclic peptide ecumicin targeting ClpC1 is active against Mycobacterium tuberculosis in vivo Ant ||| ref [18],[19] = [18]; PMID 21969594; doi:10.1073/pnas.1110385108; 18. Sass P. Josten M. Famulla K. Schiffer G. Sahl H.G. Hamoen L. Brotz-Oesterhelt H. Antibiotic acyldepsipeptides activate ClpP peptidase to degrade the cell division protein FtsZ Proc. Natl. Acad. Sc || [19]; PMID 22123255; doi:10.1128/JB.06142-11; 19. Ollinger J. O’Malley T. Kesicki E.A. Odingo J. Parish T. Validation of the Essential ClpP Protease in Mycobacterium tuberculosis as a Novel Drug Target J. Bacteriol. 2012 194 663 668 10.1128/JB.06 ||| ref [20] = [20]; PMID 22987724; doi:10.1002/emmm.201201689; 20. Hartkoorn R.C. Sala C. Neres J. Pojer F. Magnet S. Mukherjee R. Uplekar S. Boy-Rottger S. Altmann K.H. Cole S.T. Towards a new tuberculosis drug: Pyridomycin-nature’s isoniazid Embo. Mol. Med. 201 ||| ref [21] = [21]; PMID 10747933; doi:10.1074/jbc.M000569200; 21. Kremer L. Douglas J.D. Baulard A.R. Morehouse C. Guy M.R. Alland D. Dover L.G. Lakey J.H. Jacobs W.R. Brennan P.J. Thiolactomycin and related analogues as novel anti-mycobacterial agents targeting ||| ...
Conditions: anti-TB, cited from earlier work

C=C/C(C)=C/[C@@]1(C)SC(=O)C(C)=C1O [Thiolactomycin]
MIC (target β-ketoacyl-ACP synthase, ref [21]): 92.5 µM (≈ 19.5 µg/mL)

Cyclomarin A
MIC (target ClpC1, ref [22],[23]): 0.3 to 2.5 µM

Ecumicin
MIC (target ClpC1, ref [17]): 0.13 to 0.3 µM

Ilamycins
MIC (target not given, ref [25]): 0.0098 µM

Lassomycin
MIC (target ClpC1, ref [15],[16]): 0.42 to 1.57 µM

Teixobactin
MIC (target lipid II, ref [24]): 0.125 µM
